# In patent US6794396B2, “Substituted pyridines useful for inhibiting cholesteryl ester transfer protein activity” (Pharmacia Corporation, priority 1998, dated 2004):
# pIC50: −log10 of the molar value.
# Target: T1, CETP (Homo sapiens, UniProt P11597)
# T1 construct: made in house; host or cells: CHO cells (serum-free conditioned medium)
# T1 sequence (P11597 18-493): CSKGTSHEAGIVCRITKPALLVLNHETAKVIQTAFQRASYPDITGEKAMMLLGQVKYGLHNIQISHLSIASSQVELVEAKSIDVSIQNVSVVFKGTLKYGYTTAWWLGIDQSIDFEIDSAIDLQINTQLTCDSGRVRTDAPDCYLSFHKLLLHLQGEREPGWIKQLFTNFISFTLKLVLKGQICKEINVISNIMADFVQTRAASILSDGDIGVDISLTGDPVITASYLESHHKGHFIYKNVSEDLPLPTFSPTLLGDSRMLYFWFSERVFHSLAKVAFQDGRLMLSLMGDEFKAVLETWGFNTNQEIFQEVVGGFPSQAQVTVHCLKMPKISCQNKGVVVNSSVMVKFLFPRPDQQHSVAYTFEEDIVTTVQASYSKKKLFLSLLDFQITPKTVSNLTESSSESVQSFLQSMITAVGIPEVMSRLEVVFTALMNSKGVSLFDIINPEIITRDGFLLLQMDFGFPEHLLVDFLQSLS
# Test: CETP activity in vitro: transfer of [3H]CE from HDL donor to LDL acceptor particles
# Type: biochemical
# Details: 50% inhibition of [3H]CE transfer from HDL to LDL, 2 hours at 37° C.; read-out: IC50(μm)
# Protocol: The ability of compounds to inhibit CETP were assessed using an in vitro assay that measured the rate of transfer of radiolabeled cholesteryl ester ([^3H]CE) from HDL donor particles to LDL acceptor particles. Details of the assay are provided by Glenn et al. (“Quantification of Cholesteryl Ester Transfer Protein (CETP): A) CETP Activity and B) Immunochemical Assay of CETP Protein,” Meth. Enzymol., Glenn and Melton (Meth. Enzymol., 263, 339-351 (1996), which is incorporated herein by reference). CETP was obtained from the serum-free conditioned medium of CHO cells transfected with a cDNA for CETP (Wang, S. et al. J. Biol Chem. 267, 17487-17490 (1992), which is incorporated herein by reference).
# To measure CETP activity, [^3H]CE-labeled HDL, LDL, CETP and assay buffer (50 mM tris(hydroxymethyl)amino-methane, pH 7.4; 150 mM sodium chloride; 2 mM ethylenediamine-tetraacetic acid; 1% bovine serum albumin) were incubated in a volume of 200 μl, for 2 hours at 37° C. in 96 well plates. LDL was differentially precipitated by the addition of 50 μl of 1% (w/v) dextran sulfate/0.5 M magnesium chloride, mixed by vortex, and incubated at room temperature for 10 minutes The solution (200μl) was transferred to a filter plate (Millipore). After filtration, the radioactivity present in the precipitated LDL was measured by liquid scintillation counting.
# This value was defined as the IC50.
row,pIC50,SMILES
1,4.40,"COC(=O)c1c(C(F)F)nc(C(F)(F)F)c(C(=O)Oc2ccc(C(C)C)cc2Cc2ccc(F)cc2)c1CC(C)C [Compound 170, 3-Methyl 5-[2-(4-Fluorobenzyl)-4-isopropylphenyl]2-(Difluoromethyl)-4-(2-methylpropyl)-6-(trifluoromethyl)-3,5-pyridicarboxylate]"
2,4.46,COC(=O)c1c(C(F)F)nc(C(F)(F)F)c(N=C=S)c1CC(C)C [Compound 18]
3,4.22,CCOC(=O)c1c(C(F)(F)F)nc(C(F)(F)F)c(C#N)c1OCC [Compound 64]

row,SMILES,pIC50
1,"COC(=O)c1cc(CSC(=S)N(C)C)c(C(F)(F)F)nc1C(F)F [Compound 43, Methyl 2-(Difluoromethyl)-5-[(dimethylaminothionothio)methyl]-6-(trifluoromethyl)-3-pyridinecarboxylate]",4.30

# Same assay, conditions: 100 μm
row,SMILES,% Transfer @ 100 μm [%]
1,COC(=O)c1c(C(F)F)nc(C(F)(F)F)c(SCC(N)=O)c1CC(C)C [Compound 145],64

# Same assay, conditions: 2 h, read-out: % Transfer @ 100 μm
row,SMILES,remaining activity at 100 µM [%]
1,"COC(=O)c1c(C(F)F)nc(C(F)(F)F)c([S+]([O-])CCCl)c1CC(C)C (stereo not shown) [Compound 111, Methyl 5-(Chloroethylsulfinyl)-2-(difluoromethyl)-4-(2-methylpropyl)-6-(trifluoromethyl)-3-pyridinecarboxylate]",78

# Same assay, conditions: 2 h; read-out: % Transfer @ 100 μm
row,remaining activity at 100 µM [%],SMILES
1,90,"Cc1c(C(F)(F)F)ncc(C(=O)O)c1Sc1ccc(C(C)C)cc1 [Compound 126, 4-(4-Isopropylphenylthio)-5-methyl-6-(trifluoromethyl)-3-pyridinecarboxylic Acid]"

# Same assay, conditions: @ 100 μm; footnotes A and B of Table 6
row,CE transferred,SMILES
1,^A90% CE transferred @ 100 μm.,"COC(=O)c1c(C(F)F)nc(C(F)(F)F)c(CSc2nnnn2C)c1CC(C)C [Compound 189, Methyl 5-[(1-Methyltetrazol-5-yl)thiomethyl]-2-(difluoromethyl)-4-(2-methylpropyl)-6-(trifluoromethyl)-3-pyridinecarboxylate]"

# Same assay, conditions: IC50(μm), 50% inhibition of [3H]CE transfer from HDL to LDL, 2 hours at 37° C.
row,SMILES,pIC50
1,"CC(C)Cc1c(C(=O)OC(C)(C)C)c(C(F)F)nc(C(F)(F)F)c1C(=O)OC(C)(C)C [Compound 9, Di-t-Butyl 2-(difluoromethyl)-4-(2-methylpropyl)-6-(trifluoromethyl)-3,5-pyridinedicarboxylate]",4.70

# Same assay, conditions: IC50, Table 6, compounds of formula T-6
row,SMILES,pIC50
1,COC(=O)c1c(C(F)F)nc(C(F)(F)F)c(CSc2ccc(OC(F)(F)F)cc2)c1CC(C)C [Compound 191],5.00

# Same assay, conditions: IC50, Table 7, compounds of formula T-7
row,SMILES,pIC50
1,COC(=O)c1c(C(F)F)nc(C(F)(F)F)c(SCc2cccc(OC)c2)c1CC(C)C [Compound 231],4.30

# Same assay, conditions: Table 5, compounds of formula T-5; read-out: IC50
row,pIC50,SMILES
1,4.72,"COC(=O)c1c(C(F)F)nc(C(F)(F)F)c(CSc2c(C(F)(F)F)nc(C(F)F)c(C(=O)OC)c2CC(C)C)c1CC(C)C [Compound 182, Methyl 5-{[3-(Carbomethoxy)-2-(difluoromethyl)-4-isobutyl-6-(trifluoromethyl)-5-pyridyl]thiomethyl}-2-(difluoromethyl)-4-isobutyl-6-(trifluoromethyl)-3-pyridinecarboxylate]"

# Same assay, conditions: Table 6, compounds of formula T-6; read-out: IC50
row,pIC50,SMILES
1,4.70,"COC(=O)c1c(C(F)F)nc(C(F)(F)F)c(CSc2ccc(OC)cc2)c1CC(C)C [Compound 199, Methyl 5-[(4-Methoxyphenyl)thiomethyl]-2-(difluoromethyl)-4-(2-methylpropyl)-6-(trifluoromethyl)-3-pyridinecarboxylate]"
2,< 4.00,"COC(=O)c1c(C(F)F)nc(C(F)(F)F)c(CSc2nnnn2C)c1CC(C)C [Compound 189, Methyl 5-[(1-Methyltetrazol-5-yl)thiomethyl]-2-(difluoromethyl)-4-(2-methylpropyl)-6-(trifluoromethyl)-3-pyridinecarboxylate]"
3,4.70,"COC(=O)c1c(C(F)F)nc(C(F)(F)F)c(CSc2c(F)c(F)c(C(F)(F)F)c(F)c2F)c1CC(C)C [Compound 196, Methyl 5-[(2,3,5,6-Tetrafluoro-4-(trifluoromethyl)phenyl)thiomethyl]-2-(difluoromethyl)-4-(2-methylpropyl)-6-(trifluoromethyl)-3-pyridinecarboxylate]"
4,4.52,"COC(=O)c1c(C(F)F)nc(C(F)(F)F)c(CSc2cccc(Br)c2)c1CC(C)C [Compound 184, Methyl 5-[(3-Bromophenyl)thiomethyl]-2-(difluoromethyl)-4-(2-methylpropyl)-6-(trifluoromethyl)-3-pyridinecarboxylate]"
5,4.40,"COC(=O)c1c(C(F)F)nc(C(F)(F)F)c(CSc2ccccc2Cl)c1CC(C)C [Compound 200, Methyl 5-[(2-Chlorophenyl)thiomethyl]-2-(difluoromethyl)-4-(2-methylpropyl)-6-(trifluoromethyl)-3-pyridinecarboxylate]"
6,4.15,"COC(=O)c1c(C(F)F)nc(C(F)(F)F)c(CSc2ncccn2)c1CC(C)C [Compound 203, Methyl 5-[(Pyrimidin-2-yl)thiomethyl]-2-(difluoromethyl)-4-(2-methylpropyl)-6-(trifluoromethyl)-3-pyridinecarboxylate]"
7,4.22,"COC(=O)c1c(C(F)F)nc(C(F)(F)F)c(CSc2nccc(C)n2)c1CC(C)C [Compound 197, Methyl 5-[(4-Methylpyrimidin-2-yl)thiomethyl]-2-(difluoromethyl)-4-(2-methylpropyl)-6-(trifluoromethyl)-3-pyridinecarboxylate]"
8,4.82,"COC(=O)c1c(C(F)F)nc(C(F)(F)F)c(CSc2cccc(Cl)c2)c1CC(C)C [Compound 213, Methyl 5-[(3-Chlorophenyl)thiomethyl]-2-(difluoromethyl)-4-(2-methylpropyl)-6-(trifluoromethyl)-3-pyridinecarboxylate]"
9,4.22,"COC(=O)c1c(C(F)F)nc(C(F)(F)F)c(CSc2ccccc2OC)c1CC(C)C [Compound 208, Methyl 5-[(2-Methoxyphenyl)thiomethyl]-2-(difluoromethyl)-4-(2-methylpropyl)-6-(trifluoromethyl)-3-pyridinecarboxylate]"

# Same assay, conditions: Table 7, compounds of formula T-7; read-out: IC50
row,SMILES,pIC50
1,COC(=O)c1c(C(F)F)nc(C(F)(F)F)c(SCc2ccc(OC)cc2)c1CC(C)C [Compound 221],4.40
2,COC(=O)c1c(C(F)F)nc(C(F)(F)F)c(SCc2ccc(OCc3ccccc3)cc2)c1CC(C)C [Compound 224],4.60
3,COC(=O)c1c(C(F)F)nc(C(F)(F)F)c(SCc2ccccc2)c1CC(C)C [Compound 219],4.60

# Now from value to compound:
row,pIC50,SMILES
1,4.35,COC(=O)c1c(C(F)F)nc(C(F)(F)F)c(SCc2ccccc2Br)c1CC(C)C [Compound 239]
2,4.30,COC(=O)c1c(C(F)F)nc(C(F)(F)F)c(SCc2cccc([N+](=O)[O-])c2)c1CC(C)C [Compound 230]
3,4.70,COC(=O)c1c(C(F)F)nc(C(F)(F)F)c(SCc2ccc(C(F)(F)F)cc2C(F)(F)F)c1CC(C)C [Compound 234]
4,4.52,COC(=O)c1c(C(F)F)nc(C(F)(F)F)c(SCc2ccc(OC(F)(F)F)cc2)c1CC(C)C [Compound 235]
5,4.30,COC(=O)c1c(C(F)F)nc(C(F)(F)F)c(SCc2c(F)c(F)c(F)c(F)c2F)c1CC(C)C [Compound 244]

# Same assay, conditions: Table 8; read-out: IC50
row,pIC50,SMILES
1,< 4.00,OCc1c(C(F)F)nc(C(F)(F)F)c(C(O)c2ccc(Cl)cc2)c1-c1ccccc1 (stereo not shown) [Compound 269]
2,< 4.00,OCc1c(C(F)(F)F)nc(C(F)F)c(CN2CCCC2)c1-c1ccccc1 [Compound 297]
3,4.41,CC(C)CC(O)c1c(C(F)F)nc(C(F)(F)F)c(C(F)c2ccc(C(F)(F)F)cc2)c1-c1ccc(F)cc1 (stereo not shown) [Compound 283]
4,4.15,CCOC(=O)c1c(C(F)(F)F)nc(C(F)F)c(C(F)c2ccc3ccccc3c2)c1-c1ccccc1 (stereo not shown) [Compound 268]
5,4.82,O=C(c1ccc(Cl)cc1)c1c(C(F)(F)F)nc(C(F)F)c(CO)c1-c1ccccc1 [Compound 258]
6,< 4.00,OCc1c(C(F)F)nc(C(F)(F)F)c(C(O)c2ccc3ccccc3c2)c1-c1ccccc1 (stereo not shown) [Compound 270]
7,< 4.00,OC(c1ccc(C(F)(F)F)cc1)c1c(C(F)F)nc(C(F)(F)F)c(COCc2ccccc2)c1-c1ccc(F)cc1 (stereo not shown) [Compound 276]
8,4.72,CC(C)CC(O)c1c(C(F)F)nc(C(F)(F)F)c(C(=O)c2ccc(C(F)(F)F)cc2)c1-c1ccc(F)cc1 (stereo not shown) [Compound 288]
9,4.64,C=CC(O)c1c(C(F)F)nc(C(F)(F)F)c(C(=O)c2ccc(C(F)(F)F)cc2)c1-c1ccc(F)cc1 (stereo not shown) [Compound 284]
10,4.15,CCOC(=O)c1c(C(F)(F)F)nc(C(F)F)c(C(F)c2ccc(Cl)cc2)c1-c1ccccc1 (stereo not shown) [Compound 267]
11,< 4.00,OCc1c(C(F)F)nc(C(F)(F)F)c(COCc2ccccc2)c1-c1ccc(F)cc1 [Compound 281]
